In US4396607A, “Muramyl peptide derivatives and pharmaceutical compositions” (priority 1978, dated 1983):

Tests used:
[1] = Toxicity (lethal dose 50) by parenteral administration in the adrenalectomised mouse; assay type: in vivo, mice
Description: The toxicity of the products according to the invention was investigated by parenteral administration in mice. It was observed that the toxic doses were of an order of magnitude very much higher than that of the doses at which these products manifest their activity. Thus the lethal dose 50 of the products according to the invention tested was higher than 5 mg/kg of animal in the adrenalectomised mouse, whose sensitivity to endotoxins is well-known.

[2] = test system: bovine serum albumin (BSA); assay: Adjuvant character in the aqueous phase (antibody titer by passive hemagglutination); assay type: in vivo, Swiss mice; conditions: mice, 0.5 mg BSA with 0.1 mg tested substance SC in isotonic saline, booster day 30, titer at the 36th day
Description: (§1) Groups of 8 Swiss mice aged two months received, by sub-cutaneous injection (SC), 0.5 mg of antigen constituted by bovine serum albumin (BSA) with 0.1 mg or without the tested substance in an isotonic saline solution. This high dose of antigen, because it is situated at the limit of the paralyzing dose with respect to the immunitary response, results, for this reason, in a weak or zero response to the antigen only in the controls: It constitutes therefore a severe criterien to establish the activity of an adjuvant substance. Thirty days later, the mice received, by the same administrative route, a booster containing 0.1 mg of the same antigen.
(§2) The antibody level was determined, six days after the booster, by passive hemagglutination using sheep's red blood corpuscles treated with formalin and covered with the antigen studied according to the method described by A. A. HIRATA and M. W. BRANDISS (J. Immunol., 100, 641-648, 1968).
The antibody titer, represented by the maximum serum dilution agglutinating a given amount of sheep corpuscles, reaches a maximum at the 36th day and is established in the following manner: […]

Ovalbumin [3] = assay: Adjuvant character in emulsion (delayed hypersensitivity and antibodies); assay type: in vivo, Hartley guinea pigs; conditions: guinea pigs, 50 μg in AlF emulsion with 1 mg ovalbumin; for Log2 of the hemagglutinating titer: serum day 21; for HSR (diameter of the delayed hypersensitivity reaction): skin test day 18, read 48 hours later
Description: The tests were carried out on batches of 6 male Hartley guinea pigs of 350 g. The administration was done by intradermal injection into the plantar pad of each of the rear paws. Ovalbumin (constituting the antigen) in the amount of 1 mg is prepared in 0.1 ml of an emulsion of saline isotonic solution, in any oily phase constituted either by the Freund imcomplete adjuvant (FIA), or by the complete adjuvant (FCA) formed by the FIA to which is added 0.1 mg of whole Mycobacterium smegmatis cells. The compound according to the invention was administered in the amount of 0.05 mg added in the emulsion containing the FIA.
Eighteen days after this immunization, possible delayed hypersensitivity reactions to the antigen were sought by injecting by the intradermal route 0.01 mg of ovalbumin in the side of the animals, and 48 hours later, the reaction of the point of injection was observed. The diameter in millimeters of the reaction thus caused was measured.
Twenty-one days after the injection, the animals were bled. […]

Klebsiella pneumoniae = assay: Anti-infectious activity with respect to Klebsiella; assay type: in vivo; conditions: mice, i.v. treatment 24h before 2 × 10^4 bacteria i.m.
Description: The survival of groups of inoculated mice under the above conditions and treated by means of the products according to the invention was followed.
The infecting dose was 2.10^4 Klebsiella; it was administered by the intramuscular route.
The administration of the tested product was carried out by the intravenous route in 0.2 ml of apyrogenic physiological solution, the controls receiving the solution alone. It was carried out 24 hours before the inoculation.
The percentage protection indicated is a difference of the percentages of survivors of the treated group with respect to the control group.

[4] = Liposome forms: toxicity in the adrenalectomized mouse; assay type: in vivo; conditions: groups of six mice, 100 μg
Description: Pharmacological tests similar to the preceding ones were reproduced with MDP, MDP-L-Ala-eicosyl-ester and MDP-L-Ala-glyceryl-mycolate comparing the effects of administration in liposome form with those obtained for products in solution and with liposomes without muramyl-peptide.
The liposomes were prepared in the manner described above.
The products, the doses administered and their effect on the mortality of groups of six mice are indicated below.

BSA = assay: Liposome forms: adjuvant character in mice, BSA as antigen; assay type: in vivo; conditions: 10 μg
Description: as §1, §2
The series of tests was carried out on mice under the same conditions as indicated in (3)(a), using BSA as antigen.

ovalbumin [5] = assay: Liposome forms: adjuvant character in Wistar rats, ovalbumin; assay type: in vivo; conditions: ovalbumin 0.5 mg s.c., 200 μg
Description: The antigen was ovalbumin injected by the subcutaneous route in male Wistar rats in a volume of 0.5 ml at the dose of 0.5 mg. The adjuvant preparations were injected simultaneously, at the dose indicated. At day 20, the animals received a booster of 0.5 mg of antigen alone by the same route. The serums were drawn and tested under the same conditions as in the mouse with the appropriate antigen.

ovalbumin [6] = assay: Liposome forms: adjuvant character in guinea pigs, ovalbumin in aqueous solution; assay type: in vivo, Hartley male guinea pigs; conditions: ovalbumin 1 mg in foot pad
Description: The antigen was ovalbumin injected in aqueous solution in the foot pad of Hartley male guinea pigs at a volume of 0.1 ml in each rear paw, at the dose of 1 mg per guinea pig. The adjuvant preparations were injected simultaneously at the indicated doses. After three weeks, the animals received by the dermal route, in a volume of 0.1 ml, 0.025 mg of antigen. The diameter of the cutaneous reactions was measured after 48 hours. The animals were bled and the titers measured.

Klebsiella = assay: Liposome forms: anti-Klebsiella activity (intravenous infection); assay type: in vivo; conditions: mice, i.v. treatment at D - 1, 1.5.10^3 Klebsiella i.v.
Description: Under the previously described conditions, with the exception of the infection produced by the intravenous injection of 1.5.10^3 Klebsiella, the tests are renewed to determine the anti-infectious action. The administrations in the form of solution and of liposome were prepared.

Listeria monocytogenes = assay: Liposome forms: anti-Listeria activity; assay type: in vivo; conditions: mice, 1.10^3 Listeria i.v.
Description: The tests were carried out under the conditions of (5), using a dose of Listeria monocytogen, known to cause typically a cellular type infection.
The treatment of the mice and the inoculation were carried out by the intravenous route. The products were injected in the liposome form at the indicated doses. The controls only received isotonic solution.
The dose of Listeria administered was, in all the tests, 1.10^3 cells.
The tests whose results are given below were carried out by varying the interval of time separating the treatment of inoculation from the Listeria monocytogenes (either 1, either 4, or 8 days). The number of surviving mice at the 5th and at the 10th day following inoculation was followed, and the percentage protection determined as for the preceding tests.

[7] = test system: Limulus amoebocyte lysate; assay: Limulus test (endotoxic type activity); conditions: gel formation after 20 minutes at 37° C.
Description: For this purpose, 0.1 ml of the Limulus amoebocyte lysate preparation (marketed by the MALLINCKRODT Company, at St. LOUIS, U.S.A.) was mixed with an equal volume of the tested product at various concentrations in solution in apyrogenic distilled water. The vessels used were also made apyrogenic by dry heating in the oven, at 180° C., for 2 hours.
After incubating the mixture for 20 minutes at 37° C. in tubes, the formation of gel characteristics of the presence of endotoxin was estimated.

[8] = i.v. treatment at D - 1, dose 100 μg
[9] = i.v. treatment at D - 4, dose 100 μg
[10] = i.v. treatment at D - 8, dose 100 μg

Compound | lethal dose 50 [1] | Log2 hemagglutinating titer [2] | Log2 of the hemagglutinating titer (Ovalbumin [3]) | HSR (diameter of the delayed hypersensitivity reaction) (Ovalbumin [3]) | % of protection (Klebsiella pneumoniae; dose per mouse 10) | Number of survivors at day 3 (Klebsiella pneumoniae; dose per mouse 10) | Number of survivors at day 5 (Klebsiella pneumoniae; dose per mouse 10) | Number of survivors at day 8 (Klebsiella pneumoniae; dose per mouse 10) | % of protection (Klebsiella pneumoniae; dose per mouse 100) | Number of survivors at day 3 (Klebsiella pneumoniae; dose per mouse 100) | Number of survivors at day 5 (Klebsiella pneumoniae; dose per mouse 100) | Number of survivors at day 8 (Klebsiella pneumoniae; dose per mouse 100) | Number of dead mice [4] | Log2 of the hemagglutinating titer (BSA) | % of protection (Klebsiella; 1 μg) | Number of survivors at D + 3 (Klebsiella; 1 μg) | Number of survivors at D + 5 (Klebsiella; 1 μg) | Number of survivors at D + 8 (Klebsiella; 1 μg) | % of protection (Klebsiella; 10 μg) | Number of survivors at D + 3 (Klebsiella; 10 μg) | also measured
N-acetyl-muramyl-L-alanyl-D-isoglutaminyl-L-alanylglyceryl-mycolate [MDP--L--Ala--glyceryl--mycolate] | higher than 5 mg/kg | 7.47 ± 1.17 | 12.77 ± 0.83 | 21± 3 millimeters | 33% | 5 | 4 | 4 | 79% | 23 | 23 | 23 | 0/6 | 2.07 ± 1.13 | 0% | 2 | 2 | 2 | 25% | 9 | Log2 of the hemagglutinating titer (ovalbumin [5]): 7.64 ± 1.90; HSR (diameter of the cutaneous reactions) (ovalbumin [6]; dose not given): 0; Log2 of the hemagglutinating titer (ovalbumin [6]; dose not given): 8.64 ± 1.83; Number of survivors at D + 5 (Klebsiella; 10 μg): 8; Number of survivors at D + 8 (Klebsiella; 10 μg): 8; % of protection (Klebsiella; 100 μg): 63%; Number of survivors at D + 3 (Klebsiella; 100 μg): 8; Number of survivors at D + 5 (Klebsiella; 100 μg): 7; Number of survivors at D + 8 (Klebsiella; 100 μg): 7; % of protection (Listeria monocytogenes; [8]): 0%; Number of survivors D + 5 (Listeria monocytogenes; [8]): 3; Number of survivors D + 10 (Listeria monocytogenes; [8]): 2; % of protection (Listeria monocytogenes; [9]): 0%; Number of survivors D + 5 (Listeria monocytogenes; [9]): 1; Number of survivors D + 10 (Listeria monocytogenes; [9]): 0; % of protection (Listeria monocytogenes; [10]): 0%; Number of survivors D + 5 (Listeria monocytogenes; [10]): 1; Number of survivors D + 10 (Listeria monocytogenes; [10]): 0
CCCCCCCCCCCCCCCCCCCCOC(=O)[C@H](C)NC(=O)CC[C@@H](NC(=O)[C@H](C)NC(=O)[C@@H](C)O[C@H]1[C@H](O)[C@@H](CO)OC(O)[C@@H]1NC(C)=O)C(N)=O (stereo partly drawn) [MDP--L--Ala--eicosyl--ester, eicosyl ester of N-acetyl-muramyl-L-alanyl-D-isoglutamine-L-alanine] | higher than 5 mg/kg | 7.11 ± 2.03 | 11.25 ± 1.14 | 6 ± 4 millimeters | 46% | 18 | 14 | 14 | 70% | 23 | 23 | 20 | 0/6 | 3.64 ± 1.15 | 25% | 4 | 4 | 4 | 31% | 13 | Limulus test result (concentration of the tested product) [7]: 10 µg/mL; Log2 of the hemagglutinating titer (ovalbumin [6]; 200 μg): 7.33 ± 1.51; HSR (diameter of the cutaneous reactions; in parentheses number of animals showing the reaction) (ovalbumin [6]; 200 μg, read after 48 hours): 0; Number of survivors at D + 5 (Klebsiella; 10 μg): 9; Number of survivors at D + 8 (Klebsiella; 10 μg): 9; % of protection (Klebsiella; 100 μg): 63%; Number of survivors at D + 3 (Klebsiella; 100 μg): 14; Number of survivors at D + 5 (Klebsiella; 100 μg): 14; Number of survivors at D + 8 (Klebsiella; 100 μg): 14; % of protection (Listeria monocytogenes; [8]): 0%; Number of survivors D + 5 (Listeria monocytogenes; [8]): 3; Number of survivors D + 10 (Listeria monocytogenes; [8]): 0; % of protection (Listeria monocytogenes; [9]): 0%; Number of survivors D + 5 (Listeria monocytogenes; [9]): 4; Number of survivors D + 10 (Listeria monocytogenes; [9]): 4; % of protection (Listeria monocytogenes; [10]): 0%; Number of survivors D + 5 (Listeria monocytogenes; [10]): 2; Number of survivors D + 10 (Listeria monocytogenes; [10]): 2
